According to ChEMBL document CHEMBL1201862, “PubChem BioAssay data set” (2004):
Each block holds one molecule with its values, some of them ahead of it. Active and inactive are the calls of the source.

What was measured:
[1] = system: HEK293; assay: inhibition of NOD1-driven NF-kB reporter – cell-based, luminescence, uHTS, primary screen (AID 1578); type: functional; conditions: Homo sapiens
[2] = system: HEK293; assay: cells; type: functional, cell-based; conditions: Homo sapiens
[3] = system: HEK293; assay: cells; type: functional, cell-based; conditions: Homo sapiens; remark: listed apart in the source
[4] = target: Nucleotide-binding oligomerization domain-containing protein 2 (Homo sapiens, UniProt Q9HC29); assay: inhibition of NOD2-driven NF-kB reporter – cell-based, luminescence, uHTS, HEK293 (AID 1566); type: functional
Nucleotide-binding oligomerization domain-containing protein 2, sequence (Q9HC29 whole entry, the tested form may be a part): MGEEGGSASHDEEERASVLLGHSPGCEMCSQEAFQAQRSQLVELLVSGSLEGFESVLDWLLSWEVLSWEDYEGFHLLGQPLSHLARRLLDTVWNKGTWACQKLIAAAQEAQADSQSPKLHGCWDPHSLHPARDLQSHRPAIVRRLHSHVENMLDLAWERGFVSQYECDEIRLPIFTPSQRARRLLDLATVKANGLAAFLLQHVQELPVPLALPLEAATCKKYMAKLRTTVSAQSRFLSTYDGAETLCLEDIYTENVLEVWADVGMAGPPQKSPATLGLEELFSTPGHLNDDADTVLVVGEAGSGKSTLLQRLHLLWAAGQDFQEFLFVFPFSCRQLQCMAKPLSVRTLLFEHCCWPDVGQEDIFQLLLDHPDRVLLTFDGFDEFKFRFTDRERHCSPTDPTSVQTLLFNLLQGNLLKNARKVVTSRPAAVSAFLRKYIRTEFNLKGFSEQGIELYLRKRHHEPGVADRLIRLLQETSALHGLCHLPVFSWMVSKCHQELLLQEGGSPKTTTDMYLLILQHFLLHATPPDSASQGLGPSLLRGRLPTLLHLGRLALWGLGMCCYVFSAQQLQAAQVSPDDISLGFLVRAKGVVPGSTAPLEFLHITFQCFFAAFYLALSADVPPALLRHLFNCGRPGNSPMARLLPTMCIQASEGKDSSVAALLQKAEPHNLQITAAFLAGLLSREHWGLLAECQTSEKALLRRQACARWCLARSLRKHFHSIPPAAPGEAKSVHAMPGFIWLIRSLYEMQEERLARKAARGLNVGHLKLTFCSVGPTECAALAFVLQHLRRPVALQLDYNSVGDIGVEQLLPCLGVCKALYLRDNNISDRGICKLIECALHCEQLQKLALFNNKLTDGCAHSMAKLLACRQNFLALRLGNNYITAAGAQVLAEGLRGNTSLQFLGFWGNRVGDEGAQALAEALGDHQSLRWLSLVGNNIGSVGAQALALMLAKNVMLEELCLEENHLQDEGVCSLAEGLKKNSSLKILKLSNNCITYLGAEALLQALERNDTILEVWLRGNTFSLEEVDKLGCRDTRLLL

[5] = system: HEK293; assay: NOD2 signaling inhibitors in MDP-stimulated cells, cell-based, uHTS, luminescence (AID 2001); type: functional; conditions: Homo sapiens
[6] = system: HEK293; assay: cells; type: functional, cell-based; conditions: Homo sapiens; remark: listed apart in the source
[7] = target: T1, Interleukin-8 (Homo sapiens, UniProt P10145); assay: Dose Response confirmation of uHTS small molecule hits for cystic fibrosis induced NFkb Inhibitors in a PAF-induced IL8 counterscreen.; type: functional; conditions: read-out: IC50_Mean
T1 sequence (P10145 whole entry): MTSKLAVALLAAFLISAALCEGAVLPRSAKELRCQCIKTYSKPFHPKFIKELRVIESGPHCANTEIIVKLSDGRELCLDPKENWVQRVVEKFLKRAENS

[8] = blockers of HIV-1 envelope-mediated cell-cell fusion – cherry-pick, dose response (AID 652057); type: functional, cell-based
[9] = blockers of HIV-1 ZM109 envelope-driven cell-cell fusion – HeLa effector, CEM target cells, luciferase, cherry-pick, dose response (AID 652058); type: functional, cell-based;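 note: luciferase signal from HIV-1 Env mediated cell-cell fusion of effector and target cells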
[10] = off-target signal loss in HeLa-CEM21 co-culture – HeLa F-luc CTL cells, cherry-picked, counter-screen for HIV-1 Env fusion inhibitor project, dose response (AID 652040); type: functional, cell-based;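 note: potency for signal decrease marking cytotoxic or nonspecific inhibition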
[11] = HIV-1 AD8 envelope cell-cell fusion blockers – cherry-pick, dose response (AID 652062); type: functional, cell-based;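 note: luciferase signal from cell-cell fusion driven by HIV-1 clade B AD8 Env; potency is for inhibitors of fusion seen as a drop in luminescence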
[12] = target: T2, Protein disulfide-isomerase (Homo sapiens, UniProt P07237); assay: inhibition of PDI-driven insulin aggregation – biochemical, turbidity, absorbance, cherry-picked samples, dose response (AID 602350); type: functional
T2 sequence (P07237 whole entry): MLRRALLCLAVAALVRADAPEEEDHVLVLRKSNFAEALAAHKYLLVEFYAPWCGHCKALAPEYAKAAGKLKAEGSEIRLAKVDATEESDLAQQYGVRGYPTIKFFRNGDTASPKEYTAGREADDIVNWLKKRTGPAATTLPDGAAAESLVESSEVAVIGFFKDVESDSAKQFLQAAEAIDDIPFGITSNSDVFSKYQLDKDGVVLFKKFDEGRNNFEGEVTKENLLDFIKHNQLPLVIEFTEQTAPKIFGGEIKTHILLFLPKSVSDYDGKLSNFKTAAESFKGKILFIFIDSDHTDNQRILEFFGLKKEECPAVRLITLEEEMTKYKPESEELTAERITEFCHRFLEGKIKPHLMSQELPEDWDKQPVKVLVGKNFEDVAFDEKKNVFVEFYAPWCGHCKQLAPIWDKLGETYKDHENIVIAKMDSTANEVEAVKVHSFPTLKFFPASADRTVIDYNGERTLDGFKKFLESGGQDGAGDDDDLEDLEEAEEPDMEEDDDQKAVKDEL

[13] = target: T2, Protein disulfide-isomerase; assay: inhibition of PDI-mediated insulin reduction – biochemical, turbidity, absorbance, cherry-picked samples, set 2, dose response (AID 624274); type: functional
[14] = target: PglD (Campylobacter jejuni, UniProt O86157); assay: inhibition of C. jejuni PglD N-acetyltransferase – biochemical, DTNB absorbance, cherry-picked samples, set 2, dose response (AID 624257); type: functional
PglD, sequence (O86157 whole entry): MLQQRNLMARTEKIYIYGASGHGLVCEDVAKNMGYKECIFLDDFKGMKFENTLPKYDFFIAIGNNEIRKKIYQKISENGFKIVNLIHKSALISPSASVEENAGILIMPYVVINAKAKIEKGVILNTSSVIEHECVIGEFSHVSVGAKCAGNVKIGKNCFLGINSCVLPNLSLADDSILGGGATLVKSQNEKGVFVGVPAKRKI

[15] = system: H9c2; assay: cells; type: functional, cell-based; conditions: Rattus norvegicus, H9c2, Myocardium;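 note: confirmatory concentration-response retest of ultra-high-throughput screening hits for modulation of myocardial damage; cell death induced by hydrogen peroxide oxidative stress; compound pretreatment for 60 min then peroxide exposure for 2 h; potency is for protecting the cells against peroxide damage rather than for killing them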
[16] = target: ATP-dependent translocase ABCB1 (Homo sapiens, UniProt P08183); assay: P-gp JC-1 efflux blockade concentration-response – Jurkat-DNR cells, flow cytometry, set 2, dose response (AID 504569); type: functional; conditions: read-out: EC50_MICROM_;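 note: potency of pump inhibitors that raise cellular JC-1 green fluorescence up to the nicardipine level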
ATP-dependent translocase ABCB1, sequence (P08183 whole entry): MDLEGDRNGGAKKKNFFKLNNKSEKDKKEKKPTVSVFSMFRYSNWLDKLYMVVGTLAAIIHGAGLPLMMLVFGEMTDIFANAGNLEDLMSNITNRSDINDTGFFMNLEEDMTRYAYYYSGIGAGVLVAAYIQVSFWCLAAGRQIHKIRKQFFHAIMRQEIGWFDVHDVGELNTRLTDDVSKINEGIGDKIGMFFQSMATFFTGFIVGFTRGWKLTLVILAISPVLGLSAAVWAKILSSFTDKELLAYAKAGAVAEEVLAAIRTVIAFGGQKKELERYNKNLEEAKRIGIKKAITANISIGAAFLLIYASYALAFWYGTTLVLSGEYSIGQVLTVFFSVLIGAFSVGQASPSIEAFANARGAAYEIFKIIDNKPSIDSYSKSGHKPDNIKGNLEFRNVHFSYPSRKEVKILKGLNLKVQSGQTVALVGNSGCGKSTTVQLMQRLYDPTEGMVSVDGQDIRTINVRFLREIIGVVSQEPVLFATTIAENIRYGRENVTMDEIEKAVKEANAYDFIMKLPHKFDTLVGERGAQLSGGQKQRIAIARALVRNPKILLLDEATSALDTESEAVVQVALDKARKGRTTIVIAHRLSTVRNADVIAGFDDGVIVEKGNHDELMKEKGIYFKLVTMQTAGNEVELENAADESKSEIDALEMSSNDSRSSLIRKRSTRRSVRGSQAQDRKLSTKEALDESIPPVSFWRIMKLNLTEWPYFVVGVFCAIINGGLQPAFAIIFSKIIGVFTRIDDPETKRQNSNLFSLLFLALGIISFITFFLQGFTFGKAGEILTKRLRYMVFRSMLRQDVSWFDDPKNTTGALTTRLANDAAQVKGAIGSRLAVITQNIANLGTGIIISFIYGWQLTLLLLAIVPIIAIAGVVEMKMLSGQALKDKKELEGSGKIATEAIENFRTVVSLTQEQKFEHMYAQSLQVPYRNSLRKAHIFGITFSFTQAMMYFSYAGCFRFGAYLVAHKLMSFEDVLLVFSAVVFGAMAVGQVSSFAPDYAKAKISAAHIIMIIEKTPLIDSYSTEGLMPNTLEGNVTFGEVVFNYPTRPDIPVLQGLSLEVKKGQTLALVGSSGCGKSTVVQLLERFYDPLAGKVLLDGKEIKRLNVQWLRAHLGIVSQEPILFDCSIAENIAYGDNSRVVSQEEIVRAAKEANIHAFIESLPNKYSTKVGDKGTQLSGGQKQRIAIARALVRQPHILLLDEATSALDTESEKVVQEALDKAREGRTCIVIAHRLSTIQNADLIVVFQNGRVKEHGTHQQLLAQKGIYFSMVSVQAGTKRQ

[17] = mammalian cell viability loss – Alamar Blue, dry powder, cytotoxicity control for antifungal single agent project, dose response (AID 602188); type: functional, cell-based
[18] = target: Ras and Rab interactor 1/Tyrosine-protein kinase ABL1 (Homo sapiens, UniProt P00519+Q13671); type: functional;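 note: biochemical TR-FRET dose-response test measuring inhibition of binding between Rin1 and Abl proteins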
Ras and Rab interactor 1/Tyrosine-protein kinase ABL1, sequence (P00519 whole entry): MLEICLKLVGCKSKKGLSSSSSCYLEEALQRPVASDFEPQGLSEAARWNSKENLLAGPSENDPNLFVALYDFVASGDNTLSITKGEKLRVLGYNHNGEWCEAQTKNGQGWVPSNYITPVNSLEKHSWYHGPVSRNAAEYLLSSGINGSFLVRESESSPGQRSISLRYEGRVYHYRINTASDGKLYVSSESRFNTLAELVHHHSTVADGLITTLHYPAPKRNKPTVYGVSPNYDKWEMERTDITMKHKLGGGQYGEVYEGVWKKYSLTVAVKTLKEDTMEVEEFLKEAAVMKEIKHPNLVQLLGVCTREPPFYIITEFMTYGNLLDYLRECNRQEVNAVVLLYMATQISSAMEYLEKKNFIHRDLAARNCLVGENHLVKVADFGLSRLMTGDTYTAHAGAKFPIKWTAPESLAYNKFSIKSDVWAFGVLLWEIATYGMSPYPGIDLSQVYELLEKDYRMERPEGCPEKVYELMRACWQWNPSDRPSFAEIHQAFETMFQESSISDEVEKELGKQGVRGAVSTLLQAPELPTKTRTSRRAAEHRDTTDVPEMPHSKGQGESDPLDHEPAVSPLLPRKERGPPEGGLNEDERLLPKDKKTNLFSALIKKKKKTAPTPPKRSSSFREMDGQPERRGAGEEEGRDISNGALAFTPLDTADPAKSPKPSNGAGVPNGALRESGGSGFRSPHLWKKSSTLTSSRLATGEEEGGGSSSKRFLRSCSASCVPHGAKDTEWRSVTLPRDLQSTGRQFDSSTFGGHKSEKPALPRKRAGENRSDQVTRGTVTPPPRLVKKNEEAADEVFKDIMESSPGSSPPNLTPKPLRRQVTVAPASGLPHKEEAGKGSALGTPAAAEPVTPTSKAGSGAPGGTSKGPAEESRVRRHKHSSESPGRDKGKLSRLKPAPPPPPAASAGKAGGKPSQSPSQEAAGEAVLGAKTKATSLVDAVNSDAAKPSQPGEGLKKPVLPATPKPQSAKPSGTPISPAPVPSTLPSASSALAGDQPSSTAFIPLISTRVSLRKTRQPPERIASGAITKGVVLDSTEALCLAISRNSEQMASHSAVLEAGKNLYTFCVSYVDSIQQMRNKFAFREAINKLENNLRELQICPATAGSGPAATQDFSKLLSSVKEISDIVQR
Ras and Rab interactor 1/Tyrosine-protein kinase ABL1, sequence (Q13671 whole entry): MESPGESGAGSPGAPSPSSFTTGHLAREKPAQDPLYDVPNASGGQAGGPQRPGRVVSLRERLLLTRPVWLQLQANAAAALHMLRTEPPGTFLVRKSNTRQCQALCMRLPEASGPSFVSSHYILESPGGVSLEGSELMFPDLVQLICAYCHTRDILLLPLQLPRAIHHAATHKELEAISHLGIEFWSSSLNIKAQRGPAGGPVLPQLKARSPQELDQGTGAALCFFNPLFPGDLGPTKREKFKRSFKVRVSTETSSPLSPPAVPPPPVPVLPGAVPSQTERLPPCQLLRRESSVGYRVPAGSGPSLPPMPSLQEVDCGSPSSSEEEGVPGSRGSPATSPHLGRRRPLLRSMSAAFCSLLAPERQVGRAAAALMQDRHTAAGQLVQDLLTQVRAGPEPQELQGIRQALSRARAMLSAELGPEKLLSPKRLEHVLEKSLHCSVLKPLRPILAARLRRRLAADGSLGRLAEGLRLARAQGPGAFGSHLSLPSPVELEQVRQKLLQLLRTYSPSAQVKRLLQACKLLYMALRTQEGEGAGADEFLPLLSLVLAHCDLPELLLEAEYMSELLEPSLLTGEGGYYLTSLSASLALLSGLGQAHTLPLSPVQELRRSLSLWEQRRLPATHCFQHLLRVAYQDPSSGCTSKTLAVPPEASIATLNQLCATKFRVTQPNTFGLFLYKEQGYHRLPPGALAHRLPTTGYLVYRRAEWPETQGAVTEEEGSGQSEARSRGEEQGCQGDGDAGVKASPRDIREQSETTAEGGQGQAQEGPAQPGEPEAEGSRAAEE

Compound: Cn1c(=O)c2c(nc(Oc3ccc4ccccc4c3)n2C)n(C)c1=O
- EC50 [1]: 6.6 µM (active)
- IC50 [2]: 3.32 µM (active)
- IC50 [3]: > 20 µM (inactive)
- EC50 [4]: 4.28 µM (active)
- IC50 [5]: 3.88 µM (active)
- IC50 [6]: > 20 µM (inactive)
- IC50 [7]: 14 µM (inactive)
- AC50 [8]: 11.6 µM (active)
- AC50 [9]: 40.2 µM (active)
- AC50 [10]: 18.4 µM (active)
- AC50 [11]: 2.05 µM (active)

- AC50 [12]: < 0.009 µM (active)
- AC50 [13]: 0.009 µM (active)
Compound: CC1Cc2ccccc2N1C(=O)CSc1nnc2sc3ccccc3n12 (stereo not drawn)

- AC50 [14]: 4.58 µM (active)
Compound: Cc1c(C(=O)O)sc2nc(/C=C/c3cccc(O)c3)nc(O)c12

Compound: COc1ccc(-c2cc3nc(-c4ccccc4)cc(N4CCN(C(=O)c5ccoc5)CC4)n3n2)cc1
- IC50 [15]: > 79 µM (inactive)
- EC50 [16]: 0.94 µM (active)

Compound: Oc1c(CN2CCN(c3ccccc3)CC2)cc(Cl)c2cccnc12
- AC50 [17]: 0.964 µM (active)

- IC50 [18]: 12.8 µM (inactive)
Compound: CCOC(=O)CCCCC(=O)c1[nH]c(=O)[nH]c1Cn1ccnc1
